In patent USRE42748E1, “Oral DTPA for radionuclide chelation” (priority 2006, dated 2011):
Several values for one entry are separate records, joined by “and”; a condition that tells them apart may be missing. Equal entries are not always repeated.

Assays:
[1] = system: harvested rat small intestinal segments: Ileum; assay: Ussing chamber mucosal to serosal transport across rat ileum; format: in vitro ADME; conditions: 5 mg/ml of DTPA in HEPES Buffer
Method: (§1) The primary objective of these in vitro studies was to determine a formulation containing permeation enhancers/other additives that achieved maximum transport of DTPA from mucosal to serosal side of the intestine. The mucosal to serosal absorption of DTPA (Zinc/Calcium) was measured in vitro across harvested rat intestinal segments and colon, in an EasyMount Ussing System (Physiological Instruments Inc., CA, Item #EM-CSYS-8). The Ussing chamber consists of two diffusion chambers, a heating block for temperature control, needle valves for gas flow adjustment and gas lift stirring, and Ag/AgCl voltage and current electrodes for measuring transepithelial voltage and for passing current. Representative sections of the harvested rat small intestinal segments (jejunum, duodenum, and ileum) and the rat colon were mounted on sliders placed between the chambers, and DTPA (Zinc/Calcium) transport across the sections was monitored. Aliquots of sample solution were removed from the ‘serosal’ side at 30 min intervals and analyzed by high performance liquid chromatography (HPLC). The change in mucosal to serosal transport of DTPA (Zinc/Calcium) in the presence of different permeation enhancers was determined.
(§2) Zn-DTPA and Ca-DTPA was dissolved in HEPES buffer (VWR, Brisbane, Calif.), with or without additives, at the predetermined drug concentrations. […]

rat colon = assay: Ussing chamber mucosal to serosal transport across rat colon; format: in vitro ADME; conditions: 5 mg/ml of DTPA in HEPES Buffer
Method: as §1, §2

[2] = system: harvested rat small intestinal segments: Duodenum; assay: Ussing chamber mucosal to serosal transport across rat duodenum; format: in vitro ADME; conditions: 5 mg/ml of DTPA in HEPES Buffer
Method: as §1, §2

[3] = system: harvested rat small intestinal segments: Jejunum; assay: Ussing chamber mucosal to serosal transport across rat jejunum; format: in vitro ADME
Method: as §1
Zn-DTPA and Ca-DTPA was dissolved in HEPES buffer (VWR, Brisbane, Calif.), with or without additives, at the predetermined drug concentrations. HEPES buffer was used as the base mucosal and serosal fluid. Before initiating the experiment, 5 ml of HEPES buffer was added to each of the two chambers (mucosal and serosal) and was allowed to equilibrate for 20 min. Next, the mucosal buffer was replaced by the appropriate formulation to be tested and the experiment was initiated. Aliquots (0.5 ml) were collected from the serosal side and were replaced with an equivalent amount of fresh HEPES buffer (maintained at physiological temperature). The aliquotted samples from the serosal side were analyzed by HPLC.
Owing to the expected variation in the in vitro conditions and harvested rat intestinal segments, five replicates were used per experimental condition. In order to compare data obtained from the different experiments, the apparent permeability coefficients (Papp) were calculated according to:
[formula] Where, dQ/dt is the linear appearance rate of mass in receiver compartment, C0 is the initial solute concentration in donor compartment, and A is the surface area. The higher the Papp value, the better the permeation property. The similarity of the Papp values indicates similar behavior for the two DTPA compounds.
We then evaluated transport of Zn-DTPA and Ca-DTPA through jejunum segments with and without Labrasol.
We then tested the transport of 100 mg/ml DTPA in HEPES buffer with and without added enhancers across jejunum segments; results are in Table 3.

iron-loaded dogs = assay: Excretion of iron after repeat dose administration of DTPA in iron-loaded dogs; format: in vivo, beagle dogs; parameters: Excretion of Fe in urine / Excretion of Fe in urine, Total: unit not given here; conditions: for Excretion of Fe in urine, Total: sum 4 hr to 120 hr; for excretion of Fe after oral DTPA as % of the amount excreted by intravenously treated animals: oral vs IV
Method: The objective of this study was to evaluate the efficacy of an oral formulation of DTPA to enhance the excretion of iron in urine from iron-loaded dogs. Iron-loaded dogs were used in the study as a surrogate model for contamination by transuranic elements.
Two treatment groups, consisting of one male and one female dog, were compared. Ca-DTPA in sterile saline was administered by the intravenous route, 10 mg/kg, on Day 1, followed by 4 days of treatment with Zn-DTPA (10 mg/kg daily). The oral treatment group was also administered 10 mg/kg in 20% Labrasol® in capsules, with Ca-DTPA on Day 1 and Zn-DTPA on Days 2-5. Blood was collected from each dog at the following time points: predose and 1, 4, 8, and 24 hr after dose administration on Day 1, and at 24 hr postdose on Days 2-5. Dogs were maintained in metabolism cages for the study, and urine was collected at 4, 8, and 24 hr after the Day 1 dose, and every 24 hr after the Day 2-5 doses. Collected samples were analyzed for iron, calcium, and zinc by Perkin-Elmer ICP (Inductively Coupled Plasma) unit.

[4] = Oral bioavailability of two additional Ca-DTPA formulations in beagle dogs (SRI Study B221B-06)
Method: Oral bioavailability is assessed using the Beagle dog, or equivalent model, wherein levels of plasma Ca/Zn-DTPA from an orally administered composition are compared to levels obtained after i.v. administration using the calculation: BA=AUCPO×Doseiv/AUCiv×DosePO; where BA=bioavailability and AUC=area under the plasma concentration-time curve.
Two additional oral formulations of Ca-DTPA were studied in male and female beagle dogs to determine the effect of modifications in the formulation on oral bioavailability (SRI Study B221B-06). The dose administered was 10 mg/kg plus ˜100 μCi/kg. One male and one female dog received the drug in a bead formulation that consisted of 42.22% DTPA, 25.33% Labrasol®, 8.44% CAB-O-SIL EH5, 24.0% HPMC K110M, and 17.17% water; the other male and female dog were administered DTPA in a liquid formulation that consisted of 20% Labrasol®. In both dose groups, the formulated drug was added to size “0” capsules, then sealed and stored until administration.

[5] = Bioavailability study after liquid dose of radiolabeled DTPA (14C) in male Sprague-Dawley rats (SRI Study B230-06); format: in vivo
Method: The objective of this study was to determine the oral bioavailability of Ca-DTPA using radioactive ^14C-DTPA tracer for detection in male Sprague Dawley rats after oral administration in several different formulations. After oral gavage of Ca-DTPA or DTPA (free acid) in sterile water, the oral bioavailability of DTPA is estimated to be about 7% in these two treatment groups. […] In Group 7, which also was administered DTPA in 20% Labrasol (+Quinidine pretreatment), the mean bioavailability was 10%, but this group had greater interindividual variability than seen in the other treatment groups.

Compound `O=C([O-])CN(CCN(CC(=O)[O-])CC(=O)[O-])CCN(CC(=O)[O-])CC(=O)[O-].[Na+].[Na+].[Na+].[Zn+2]` [Zn-DTPA, zinc diethylenetriaminepentaacetate] has a Papp [1] of 2.07 ×10⁻⁶ cm/s, a Papp (rat colon) of 2.39 ×10⁻⁶ cm/s and a Papp [2] of 1.65 ×10⁻⁶ cm/s. The Papp ([3]; Jejunum, 5 mg/ml of drug in HEPES Buffer) was 4.54 ×10⁻⁶ cm/s and 4.28 ×10⁻⁶ cm/s, the Papp ([3]; jejunum, 5 mg/ml of drug in HEPES Buffer containing 40% Labrasol) was 19.08 ×10⁻⁶ cm/s and the Papp ([3]; jejunum, 100 mg/ml DTPA in HEPES buffer, 5% TPGS + 5% Labrasol) was 6.34 ×10⁻⁶ cm/s. The Papp ([3]; jejunum, 100 mg/ml DTPA in HEPES buffer, 5% Tween 80 + 5% Labrasol) was 13.27 ×10⁻⁶ cm/s, the Papp ([3]; jejunum, 100 mg/ml DTPA in HEPES buffer, 20% Bile Salt) was 19.65 ×10⁻⁶ cm/s and the Papp ([3]; jejunum, 100 mg/ml of drug in HEPES Buffer containing 10% Labrasol) was 4.21 ×10⁻⁶ cm/s. The Papp ([3]; jejunum, 100 mg/ml of drug in HEPES Buffer containing 20% Labrasol) was 3.53 ×10⁻⁶ cm/s, the Papp ([3]; jejunum, 100 mg/ml of drug in HEPES Buffer containing 40% Labrasol) was 6.81 ×10⁻⁶ cm/s and the Papp ([3]; jejunum, 100 mg/ml of drug in HEPES Buffer only) was 5.86 ×10⁻⁶ cm/s.
For `O=C(O)CN(CCN(CC(=O)O)CC(=O)O)CCN(CC(=O)O)CC(=O)O` [DTPA], the “Excretion of Fe in urine” value (iron-loaded dogs; Dog 1M, IV 10 mg/kg daily, Time 48 hr) was 0.6044, the “Excretion of Fe in urine” value (iron-loaded dogs; Dog 1M, IV 10 mg/kg daily, Time 72 hr) was 0.1732 and the “Excretion of Fe in urine” value (iron-loaded dogs; Dog 1M, IV 10 mg/kg daily, Time 96 hr) was 0.1762. For the same compound, the “Excretion of Fe in urine” value (iron-loaded dogs; Dog 1M, IV 10 mg/kg daily, Time 120 hr) was 0.2324, the “Excretion of Fe in urine, Total” value (iron-loaded dogs; Dog 1M, IV 10 mg/kg daily) was 1.444 and the “Excretion of Fe in urine” value (iron-loaded dogs; Dog 1M, IV 10 mg/kg, Time 4 hr) was 0.0970. The “Excretion of Fe in urine” value (iron-loaded dogs; Dog 1M, IV 10 mg/kg, Time 8 hr) was 0.0471, the “Excretion of Fe in urine” value (iron-loaded dogs; Dog 1M, IV 10 mg/kg, Time 24 hr) was 0.1136 and the “Excretion of Fe in urine” value (iron-loaded dogs; Dog 1M, IV in saline 10 mg/kg (Ca-DTPA Day 1, Zn-DTPA Days 2-5), Time 0 hr (predose)) was 0.1297. The “Excretion of Fe in urine” value (iron-loaded dogs; Dog 2F, IV 10 mg/kg daily, Time 48 hr) was 0.2686, the “Excretion of Fe in urine” value (iron-loaded dogs; Dog 2F, IV 10 mg/kg daily, Time 72 hr) was 0.1623 and the “Excretion of Fe in urine” value (iron-loaded dogs; Dog 2F, IV 10 mg/kg daily, Time 96 hr) was 0.2884. The “Excretion of Fe in urine” value (iron-loaded dogs; Dog 2F, IV 10 mg/kg daily, Time 120 hr) was 0.0166, the “Excretion of Fe in urine, Total” value (iron-loaded dogs; Dog 2F, IV 10 mg/kg daily) was 0.925 and the “Excretion of Fe in urine” value (iron-loaded dogs; Dog 2F, IV 10 mg/kg, Time 4 hr) was 0.0975. The “Excretion of Fe in urine” value (iron-loaded dogs; Dog 2F, IV 10 mg/kg, Time 8 hr) was 0.0124, the “Excretion of Fe in urine” value (iron-loaded dogs; Dog 2F, IV 10 mg/kg, Time 24 hr) was 0.0792 and the “Excretion of Fe in urine” value (iron-loaded dogs; Dog 2F, IV in saline 10 mg/kg (Ca-DTPA Day 1, Zn-DTPA Days 2-5), Time 0 hr (predose)) was 0.1158. For the same compound, the “Excretion of Fe in urine” value (iron-loaded dogs; Dog 3M, Oral 10 mg/kg in 20% Labrasol capsules (Ca-DTPA Day 1, Zn-DTPA Days 2-5), Time 0 hr (predose)) was 0.0947, the “Excretion of Fe in urine” value (iron-loaded dogs; Dog 3M, Oral 10 mg/kg in 20% Labrasol capsules, Time 4 hr) was 0.0654 and the “Excretion of Fe in urine” value (iron-loaded dogs; Dog 3M, Oral 10 mg/kg in 20% Labrasol capsules, Time 8 hr) was 0.0153. For the same compound, the “Excretion of Fe in urine” value (iron-loaded dogs; Dog 3M, Oral 10 mg/kg in 20% Labrasol capsules, Time 24 hr) was 0.1000, the “Excretion of Fe in urine” value (iron-loaded dogs; Dog 3M, Oral 10 mg/kg in 20% Labrasol capsules, Time 48 hr) was 0.1232 and the “Excretion of Fe in urine” value (iron-loaded dogs; Dog 3M, Oral 10 mg/kg in 20% Labrasol capsules, Time 72 hr) was 0.0506. For the same compound, the “Excretion of Fe in urine” value (iron-loaded dogs; Dog 3M, Oral 10 mg/kg in 20% Labrasol capsules, Time 96 hr) was 0.1869, the “Excretion of Fe in urine” value (iron-loaded dogs; Dog 3M, Oral 10 mg/kg in 20% Labrasol capsules, Time 120 hr) was 0.0506 and the “Excretion of Fe in urine, Total” value (iron-loaded dogs; Dog 3M, Oral 10 mg/kg in 20% Labrasol capsules) was 0.591. For the same compound, the “Excretion of Fe in urine” value (iron-loaded dogs; Dog 4F, Oral 10 mg/kg in 20% Labrasol capsules (Ca-DTPA Day 1, Zn-DTPA Days 2-5), Time 24 hr) was 0.0314, the “Excretion of Fe in urine” value (iron-loaded dogs; Dog 4F, Oral 10 mg/kg in 20% Labrasol capsules, Time 48 hr) was 0.1162 and the “Excretion of Fe in urine” value (iron-loaded dogs; Dog 4F, Oral 10 mg/kg in 20% Labrasol capsules, Time 72 hr) was 0.0210. The “Excretion of Fe in urine” value (iron-loaded dogs; Dog 4F, Oral 10 mg/kg in 20% Labrasol capsules, Time 96 hr) was 0.0406, the “Excretion of Fe in urine” value (iron-loaded dogs; Dog 4F, Oral 10 mg/kg in 20% Labrasol capsules, Time 120 hr) was 0.1089 and the “Excretion of Fe in urine, Total” value (iron-loaded dogs; Dog 4F, Oral 10 mg/kg in 20% Labrasol capsules) was 0.318. The “time of highest excretion of Fe in the urine” value (“time” below) (iron-loaded dogs; female Dog 4 (oral group)) was 48 h, the “excretion of Fe after oral DTPA as % of the amount excreted by intravenously treated animals” value (iron-loaded dogs; female dogs) was 34% and the “time” value (iron-loaded dogs; male Dog 1 (intravenous group)) was 48 h. The “excretion of Fe after oral DTPA as % of the amount excreted by intravenously treated animals” value (iron-loaded dogs; male dogs) was 40%, the “time” value (iron-loaded dogs; the other two dogs (Dog 2 IV, Dog 3 oral)) was 96 h and the “dose excreted in the feces” value ([4]; by 24 hr, both treatment groups (bead and liquid capsule)) was 73-74%. For the same compound, the “dose recovered in the excreta” value ([4]; by 264 hr after dose administration, oral Labrasol formulations) was 95-96%, the “% Bioavailability Mean ± SD” value ([5]; Group 4 Oral, 20% Labrasol) was about 12% and the “% Bioavailability Mean ± SD” value ([5]; Group 7 Oral, 0.15 mM Quinidine pretreatment then 20% Labrasol) was 10%. For the same compound, the “% Bioavailability” value ([5]; Group 7 Oral, 0.15 mM Quinidine pretreatment then 20% Labrasol, individual rats) was 19%.
For `C=C[C@H]1C[N@@]2CC[C@H]1C[C@@H]2[C@@H](O)c1ccnc2ccc(OC)cc12` [quinidine], the “inhibition of efflux transport of DTPA” value ([5]; 0.15 mM quinidine 20 min before DTPA in 20% Labrasol, inferred from rat #19) was “active in inhibiting efflux transport of DTPA”.
For `O=C(O)CN(CCN(CC(=O)O)CC(=O)O)CCN(CC(=O)O)CC(=O)O` [free acid DTPA], the “% Bioavailability Mean ± SD” value ([5]; Group 3 Oral, water) was 6.80 ± 1.66%, the “AUC0→last Mean ± SD” value ([5]; Group 3 Oral, water, 16.38 mg-equiv DTPA/Kg, 6 hr) was 1.21 ± 0.29 Hr * ( ng/ml) and the AUC0→last ([5]; Group 3 Oral, water, 16.38 mg-equiv DTPA/Kg, last time point 6 hr, individual rats) was 1.4708 Hr * ( ng/ml) and 0.8897 Hr * ( ng/ml) and 1.2594 Hr * ( ng/ml). The “% Bioavailability” value ([5]; Group 3 Oral, water, individual rats) was 8.29% and 5.02% and 7.10% and the “% Bioavailability Mean ± SD” value ([5]; Group 3 Oral, water, listed as DTPA (free acid)) was “about 7%”.
